Earlier results as cited in US6909021B2, “Method of extracting lutein from green plant materials” (Alfalfa America, Inc., priority 2003, dated 2005).

Tests used:
[1] = test system: age-related macular degeneration (AMD); conditions: dietary intake
[2] = water wash of green protein chloroplast fraction

Compound	effect on the rate of AMD [1]	solubility in water [2]
CC1=C(/C=C/C(C)=C/C=C/C(C)=C/C=C/C=C(C)/C=C/C=C(C)/C=C/C2=C(C)CCCC2(C)C)C(C)(C)CCC1 [Beta-carotene]	not seen to have an effect	–
CC1=C[C@H](O)CC(C)(C)[C@H]1/C=C/C(C)=C/C=C/C(C)=C/C=C/C=C(C)/C=C/C=C(C)/C=C/C1=C(C)C[C@@H](O)CC1(C)C [Lutein]	–	very little solubility
[Zn] [zinc]	not seen to have an effect	–
vitamin A	not seen to have an effect	–
vitamin E	not seen to have an effect	–
